Molecules are shown by their SMILES.

The subject of one assay is smooth muscle cells. The assay is described as follows: smooth muscle proliferation stimulated by PDGF and IL-1. The class given is cell-based. The source says:
CT1501R and PTX were separately added to the cells two hours prior to activation with PDGF and IL-1.

Assay [1] deals with lysophosphatidic acid acyl transferase (LPAAT). The assay is described as follows: in vitro inhibition of LPAAT in 3T3 Ras-transformed fibroblasts stimulated with IL-1β. The class given is cell-based. Here is the method: FIG. 17 illustrates a comparison of CT1501R, its S isomer CT1501S, and PTX on in vitro inhibition of lysophosphatidic acid acyl transferase (LPAAT), an enzyme involved in second messenger signaling. […] LPAAT activity was determined in 3T3 Ras-transformed fibroblasts stimulated with IL-1β.
A method described here permits differentiation of the various subspecies of PA and DAG based upon acyl chain composition. This can differentiate those compounds that activate (and inhibit activation of) the present second messenger pathway from other pathways, such as the classical PI pathway. The present second messenger pathway involves substrates with unsaturated fatty acids in the sn-2 position other than arachidonate and those sub species of PAPH and LPAAT that are not involved in normal cellular housekeeping functions that are part of the classical PI pathway. […]
One in vitro assay measures inhibition of the relevant enzymes lysophosphatidic acid acyltransferase (LPAAT) and phosphatidic acid phosphoryl hydrolase (PAPH). […] It is important to note that the assay method permits discrimination between various forms of PA and DAG so that those relevant to the pathway affected by the (R) or (S) compounds of the invention can be measured directly. […] Thus, the relevant unsaturated (non-arachidonic) PA and DAG subspecies may be detected. […]

The subject of assay [2] is adhesion of activated U937 cells to HUVEC. The assay can be described thus: adhesion of IL-1α activated U937 cells to non-stimulated HUVEC. The class given is cell-based, human. The conditions noted are these: 250 μM pre-treatment of U937 cells. Here is the method: U937 cells were stimulated with various concentrations of IL-1-α with or without the addition of 250 µM CT1501R one hour prior to addition of IL-1-α. Twelve hours later, the U937 cells were stained with BCECF and allowed to adhere to HUVEC. FIG. 22 is the relative BCECF fluorescence (+/-SD) for each of the treatment groups.
Murine peritoneal exudate cell macrophages (PEC) were isolated by perfusion of mouse peritoneum and plated into 96-well trays at 5×10^5 cells per well. Cells were stimulated with 5 μg/ml Salmonella abortus equi-derived endotoxin CLPS; Sigma Chemical Co., L-1887) or 50 ng/ml IL-1α (Genzyme; Cambridge, Mass.) with or without the addition of CT1501R added to the cultures one hour prior to addition of the stimulus. At various times thereafter, supernatants were removed and levels of either TNF-α or IL-1α were assayed using commercial 96-well microtiter immunoassay kits (Genzyme; TNF; Endogen, Boston, Mass.; IL-1α) according to manufacturer's specifications. […] After addition of […] Hanks Balanced Salt Solution (HBSS), the microtiter plate was then analyzed on a Millipore Cytofiuor fluorescent plate reader (excitation 488 nm; emission 525 nm). […]

`C[C@@H](O)CCCCn1c(=O)c2c(ncn2C)n(C)c1=O` [CT1501R, (R)-1-(5-hydroxyhexyl)-3,7-dimethylxanthine]: the “activity compared with PTX, smooth muscle cell proliferation” value in the assay with smooth muscle cells was “more active than PTX”. Moreover, the “inhibition of smooth muscle cell proliferation” value in the assay with smooth muscle cells (drug added two hours prior to activation) is recorded as “inhibited smooth muscle cell proliferation at the higher doses tested”. In assay [1], the “potency relative to racemic mixture (M1)” value is reported as “two to three time more potent than the racemic mixture”. Further, the “inhibition of LPAAT enzyme activity” value in assay [1] (3T3 Ras-transformed fibroblasts stimulated with IL-1β, at IC50 concentrations achievable in a clinical setting) is “significantly inhibited enzyme activity”. Also, in assay [2], the “IL-1α mediated increase in adhesion of U937 cells to HUVEC” value is “effectively blocked the IL-1α mediated increase in adhesion to HUVEC to near background levels”.

The values are drawn from patent publication US5621102A, “Process for preparing enantiomerically pure xanthine derivatives” (Cell Therapeutics, Inc., priority 1995, dated 1997).
